Results taken from EP1075471B1, “INDOLYL DERIVATIVES AS SEROTONERGIC AGENTS” (Wyeth, priority 1998, dated 1999).
Where two headings read alike, the source gives them in different places.

Target: T1, serotonin transporter (Rattus norvegicus, UniProt P31652)
T1 construct: frontal cortical membranes prepared from male S.D. rats; from tissue; host or cells: rat frontal cortex membranes (male Sprague-Dawley rats)
Test: 3H-Paroxetine binding to assess affinity for the serotonin transporter
Experimental: The affinity of drugs for the serotonin transporter was determined by assessing the ability of agents to displace specifically bound 3H-paroxetine binding from rat cortical membranes. […] Nonspecific binding was determined using fluoxetine.
^3H-Paroxetine Binding to Assess Affinity of Drugs for the Serotonin Transporter:
Briefly, frontal cortical membranes prepared from male S.D. rats were incubated with ^3H-paroxetine (0.1 nM) for 60 min at 25°C. All tubes also contained either vehicle, test compound (one to eight concentrations), or a saturating concentration of fluoxetine (10 µM) to define […]. All reactions are terminated by the addition of ice cold Tris buffer followed by rapid filtration using a Tom Tech filtration device to separate bound from free ^3H-paroxetine.

T1 sequence (P31652 whole entry): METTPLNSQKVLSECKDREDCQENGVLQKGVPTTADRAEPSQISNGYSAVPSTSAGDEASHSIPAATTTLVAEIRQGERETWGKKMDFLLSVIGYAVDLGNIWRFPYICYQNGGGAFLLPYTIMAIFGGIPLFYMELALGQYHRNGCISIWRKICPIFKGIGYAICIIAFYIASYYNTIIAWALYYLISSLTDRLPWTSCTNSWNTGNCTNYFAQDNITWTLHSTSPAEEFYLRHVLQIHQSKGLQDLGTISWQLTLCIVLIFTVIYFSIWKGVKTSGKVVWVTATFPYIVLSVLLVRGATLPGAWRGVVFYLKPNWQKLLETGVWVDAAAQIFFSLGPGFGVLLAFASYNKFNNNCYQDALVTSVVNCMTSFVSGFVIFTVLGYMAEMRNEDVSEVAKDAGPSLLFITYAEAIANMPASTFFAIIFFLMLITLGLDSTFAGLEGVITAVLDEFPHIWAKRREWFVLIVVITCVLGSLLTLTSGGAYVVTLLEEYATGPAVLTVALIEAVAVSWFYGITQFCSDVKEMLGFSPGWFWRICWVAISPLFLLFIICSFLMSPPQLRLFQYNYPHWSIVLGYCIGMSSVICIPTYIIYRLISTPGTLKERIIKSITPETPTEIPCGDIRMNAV

Structure (SMILES) | Ki [nM] | Ki (read-out: Inhibition of [3H]-Paroxetine binding Ki, compounds of formula (1), rat frontal cortical membranes, 3H-paroxetine 0.1 nM, 60 min at 25°C, nonspecific binding with fluoxetine 10 µM) [nM]
COc1cccc2c1ccn2C[C@@H](O)CN1CC=C(c2c[nH]c3ccccc23)CC1 [Example 14, (2S)-1-[4-(1H-Indol-3-yl)-3,6-dihydro-2H-pyridin-1-yl]-3-(4-methoxy-indol-1-yl)-propan-2-ol] | 0.03 | –
COc1cccc2c1ccn2CC(O)CN1CC=C(c2c[nH]c3ccccc23)CC1 (stereo not shown) [Example 11, 1-[4-(1H-Indol-3-yl)-3,6-dihydro-2H-pyridin-1-yl]-3-(4-methoxy-indol-1-yl)-propan-2-ol] | 0.04 | –
OC(CN1CC=C(c2c[nH]c3ccccc23)CC1)Cn1ccc2cc(F)ccc21 (stereo not shown) [Example 8, 1-(5-Fluoro-indol-1-yl)-3-[4-(1H-indol-3-yl)-3,6-dihydro-2H-pyridin-1-yl]-propan-2-ol] | 1.4 | –
O[C@@H](CN1CC=C(c2c[nH]c3ccccc23)CC1)Cn1ccc2c(F)cccc21 [Example 15, (2S)-1-(4-Fluoro-indol-1-yl)-3-[4-(1H-indol-3-yl)-3,6-dihydro-2H-pyridin-1-yl]-propan-2-ol] | 0.3 | –
OC(CN1CC=C(c2c[nH]c3ccccc23)CC1)Cn1ccc2ccccc21 (stereo not shown) [Example 12, 1-Indol-1-yl-3-[4-(1H-indol-3-yl)-3,6-dihydro-2H-pyridin-1-yl]-propan-2-ol] | – | 1.7
OC(CN1CC=C(c2c[nH]c3ccccc23)CC1)Cn1ccc2c(F)cccc21 (stereo not shown) [Example 10, 1-(4-Fluoro-indol-1-yl)-3-[4-(1H-indol-3-yl)-3,6-dihydro-2H-pyridin-1-yl]-propan-2-ol] | 0.01 | –
Cc1nc2ccccc2n1CC(O)CN1CC=C(c2c[nH]c3ccccc23)CC1 (stereo not shown) [Example 13, 1-[4-(1H-Indol-3-yl)-3,6-dihydro-2H-pyridin-1-yl]-3-(2-methyl-benzoimidazol-1-yl)-propan-2-ol] | 0.4 | –
